Assay results reported in PubChem BioAssay AID330 (DTP/NCI, 2004).
“And” between values parts separate entries of the source, which are not always exact repeats. Identical values can stand only once. Toxic doses and inconclusive results are not listed. The calls were made as follows: active = survival T/C of 150% or more; inactive = T/C below 125% in these data.

Tested on: P388 leukemia ip, CD2F1 mice, survival T/C
Assay: NCI In Vivo Anticancer Drug Screen. Data for tumor model P388 Leukemia (intraperitoneal) in CD2F1 (CDF1) mice
Settings: endpoint: median survival time, higher = longer survival
Procedure, shortened: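 Mice carrying the transplanted tumor received test compound or vehicle. Survival was recorded in each group, and the value is the treated-group measurement divided by that of the vehicle-treated control group.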

[1] = dose: 50.0 mg/kg/injection, schedule: Q01DX005 (ip), vehicle: Klucel (hydroxypropylcellulose) (HPC)
[2] = dose: 100.0 mg/kg/injection, schedule: Q01DX005 (ip), vehicle: Klucel (hydroxypropylcellulose) (HPC)
[3] = dose: 100.0 mg/kg/injection, schedule: Q04DX002 (ip), vehicle: saline with Tween-80
[4] = dose: 200.0 mg/kg/injection, schedule: Q04DX002 (ip), vehicle: saline with Tween-80
[5] = dose: 400.0 mg/kg/injection, schedule: Q04DX002 (ip), vehicle: saline with Tween-80
[6] = dose: 50.0 mg/kg/injection, schedule: Q01DX005 (ip), vehicle: saline with Tween-80
[7] = dose: 25.0 mg/kg/injection, schedule: Q01DX009 (ip), vehicle: saline
[8] = dose: 50.0 mg/kg/injection, schedule: Q01DX009 (ip), vehicle: saline
[9] = dose: 100.0 mg/kg/injection, schedule: Q01DX009 (ip), vehicle: saline with Tween-80
[10] = dose: 200.0 mg/kg/injection, schedule: Q01DX009 (ip), vehicle: saline with Tween-80
[11] = dose: 100.0 mg/kg/injection, schedule: Q01DX005 (ip), vehicle: saline with Tween-80
[12] = dose: 200.0 mg/kg/injection, schedule: Q01DX005 (ip), vehicle: saline with Tween-80

Measured: T/C

CCOC(=O)C1=C(O)C(C)(c2ccc(O)cc2O)N=C1c1ccccc1 (centres undefined)
inactive: [1] 95 % of control | [2] 96 % of control | dose: 200.0 mg/kg/injection, schedule: Q01DX005 (ip), vehicle: Klucel (hydroxypropylcellulose) (HPC) 89 % of control

O=C1OC(COCc2ccccc2)C/C1=C\c1ccc2c(c1)OCO2 (centres undefined)
inactive: [3] 95 % of control | [4] 86 % of control | [5] 86 % of control

CCCCCCCCCCN(CCCCCCCCCC)CC(=O)c1ccc2cc(Br)c3ccccc3c2c1
inactive: dose: 25.0 mg/kg/injection, schedule: Q01DX005 (ip), vehicle: Klucel (hydroxypropylcellulose) (HPC) 96 % of control | [1] 89 % of control | [2] 98 % of control

COc1ccc(C(=O)C2C(=O)C(=O)OC2C2OC(=O)C(=O)C2C(=O)c2ccc(OC)cc2)cc1 (centres undefined)
inactive: dose: 30.0 mg/kg/injection, schedule: Q01DX005 (ip), vehicle: saline 100 % of control | dose: 60.0 mg/kg/injection, schedule: Q01DX005 (ip), vehicle: saline 94 % of control and 95 % of control | dose: 120.0 mg/kg/injection, schedule: Q01DX005 (ip), vehicle: saline 93 % of control

CC1CCC2(OC1)OC1CC3C4CCC5CC(O)CCC5(C)C4CCC3(C)C1C2C (centres undefined)
inactive: dose: 10.0 mg/kg/injection, schedule: Q01DX009 (ip), vehicle: Klucel (hydroxypropylcellulose) (HPC) 108 % of control | dose: 20.0 mg/kg/injection, schedule: Q01DX009 (ip), vehicle: Klucel (hydroxypropylcellulose) (HPC) 117 % of control | dose: 40.0 mg/kg/injection, schedule: Q01DX009 (ip), vehicle: Klucel (hydroxypropylcellulose) (HPC) 119 % of control

C=CCSc1nnc(-c2ccc(C(C)(C)C)cc2)n1-c1cccc(C(F)(F)F)c1
inactive: dose: 60.0 mg/kg/injection, schedule: Q01DX005 (ip), vehicle: saline with Tween-80 100 % of control | dose: 120.0 mg/kg/injection, schedule: Q01DX005 (ip), vehicle: saline with Tween-80 100 % of control | dose: 240.0 mg/kg/injection, schedule: Q01DX005 (ip), vehicle: saline with Tween-80 94 % of control

NCC1CC2CCC1CC2 (centres undefined)
inactive: dose: 12.5 mg/kg/injection, schedule: Q01DX005 (ip), vehicle: saline with Tween-80 99 % of control | dose: 25.0 mg/kg/injection, schedule: Q01DX005 (ip), vehicle: saline with Tween-80 100 % of control | [6] 100 % of control and 102 % of control

CN(C)C(=S)S(C)(=O)=O
inactive: dose: 12.5 mg/kg/injection, schedule: Q01DX009 (ip), vehicle: saline 107 % of control | [7] 109 % of control | [8] 103 % of control and 107 % of control

O=C(O)C(CCc1nc2ccccc2[nH]1)NS(=O)(=O)c1ccccc1 (centres undefined)
inactive: dose: 12.5 mg/kg/injection, schedule: Q01DX009 (ip), vehicle: saline with Tween-80 115 % of control | dose: 25.0 mg/kg/injection, schedule: Q01DX009 (ip), vehicle: saline with Tween-80 95 % of control | dose: 50.0 mg/kg/injection, schedule: Q01DX009 (ip), vehicle: saline with Tween-80 103 % of control and 91 % of control | [9] 102 % of control | [10] 102 % of control

Nc1ncc2[nH]c(=O)[nH]c2n1
inactive: [6] 101 % of control | [11] 100 % of control | [12] 99 % of control

O=C(CBr)N(O)c1ccccc1OCc1ccccc1
inactive: dose: 6.25 mg/kg/injection, schedule: Q01DX001 (ip), vehicle: saline 116 % of control | dose: 12.5 mg/kg/injection, schedule: Q01DX001 (ip), vehicle: saline 98 % of control | dose: 25.0 mg/kg/injection, schedule: Q01DX001 (ip), vehicle: saline 104 % of control

CC(C)NCc1ccccc1Sc1ccccc1CNC(C)C
inactive: dose: 25.0 mg/kg/injection, schedule: Q01DX001 (ip), vehicle: saline with Tween-80 99 % of control | dose: 25.0 mg/kg/injection, schedule: Q04DX002 (ip), vehicle: saline 103 % of control | dose: 50.0 mg/kg/injection, schedule: Q01DX001 (ip), vehicle: saline with Tween-80 98 % of control | dose: 50.0 mg/kg/injection, schedule: Q04DX002 (ip), vehicle: saline 103 % of control | dose: 100.0 mg/kg/injection, schedule: Q01DX001 (ip), vehicle: saline with Tween-80 98 % of control | dose: 100.0 mg/kg/injection, schedule: Q04DX002 (ip), vehicle: saline 103 % of control

CC(C)C1N=C(c2ccccc2)OC1=O (centres undefined)
inactive: dose: 60.0 mg/kg/injection, schedule: Q01DX005 (ip), vehicle: Klucel (hydroxypropylcellulose) (HPC) 92 % of control | dose: 120.0 mg/kg/injection, schedule: Q01DX005 (ip), vehicle: Klucel (hydroxypropylcellulose) (HPC) 92 % of control | dose: 240.0 mg/kg/injection, schedule: Q01DX005 (ip), vehicle: Klucel (hydroxypropylcellulose) (HPC) 100 % of control

O=C1CCC(C(=O)N/N=C\C=N/NC(=O)C2CCC(=O)N2)N1 (centres undefined)
inactive: dose: 5.0 mg/kg/injection, schedule: Q01DX009 (ip), vehicle: saline with Tween-80 101 % of control | dose: 10.0 mg/kg/injection, schedule: Q01DX009 (ip), vehicle: saline with Tween-80 103 % of control | dose: 20.0 mg/kg/injection, schedule: Q01DX009 (ip), vehicle: saline with Tween-80 103 % of control

CC(=O)Oc1ccc(N=Cc2cc3c(cc2[N+](=O)[O-])OCO3)cc1
inactive: dose: 12.5 mg/kg/injection, schedule: Q01DX009 (ip), vehicle: other 113 % of control | dose: 25.0 mg/kg/injection, schedule: Q01DX009 (ip), vehicle: other 117 % of control | dose: 50.0 mg/kg/injection, schedule: Q01DX009 (ip), vehicle: other 109 % of control | dose: 100.0 mg/kg/injection, schedule: Q01DX009 (ip), vehicle: other 93 % of control | dose: 200.0 mg/kg/injection, schedule: Q01DX009 (ip), vehicle: other 92 % of control | dose: 400.0 mg/kg/injection, schedule: Q01DX009 (ip), vehicle: other 96 % of control

Fc1ccc(N/N=c2\nnc3ccc(F)cc3s2)cc1
inactive: [3] 102 % of control | [4] 95 % of control | [5] 94 % of control

Cc1ccc(S(=O)(=O)CC2OCC3OC(C)(C)OC23)cc1 (centres undefined)
inactive: dose: 12.5 mg/kg/injection, schedule: Q01DX009 (ip), vehicle: water 100 % of control | dose: 25.0 mg/kg/injection, schedule: Q01DX009 (ip), vehicle: water 93 % of control | dose: 50.0 mg/kg/injection, schedule: Q01DX009 (ip), vehicle: water 89 % of control | dose: 100.0 mg/kg/injection, schedule: Q01DX009 (ip), vehicle: water 100 % of control | dose: 200.0 mg/kg/injection, schedule: Q01DX009 (ip), vehicle: water 94 % of control

CCCN(CCC)CC(=O)Nc1c(Cl)cccc1Cl
inactive: [7] 100 % of control | [8] 110 % of control | dose: 100.0 mg/kg/injection, schedule: Q01DX009 (ip), vehicle: saline 105 % of control

C/C=C1/CN2C3CC1C1(C(=O)OC)C(OC(C)=O)[C@]4(C[C@H]21)c1cc(OC)ccc1N(C)C34 (some centres undefined)
inactive: dose: 3.5 mg/kg/injection, schedule: Q01DX005 (ip), vehicle: Klucel (hydroxypropylcellulose) (HPC) 115 % of control | dose: 7.0 mg/kg/injection, schedule: Q01DX005 (ip), vehicle: Klucel (hydroxypropylcellulose) (HPC) 108 % of control | dose: 14.0 mg/kg/injection, schedule: Q01DX005 (ip), vehicle: Klucel (hydroxypropylcellulose) (HPC) 94 % of control | dose: 28.0 mg/kg/injection, schedule: Q01DX005 (ip), vehicle: Klucel (hydroxypropylcellulose) (HPC) 100 % of control

CSc1nc2[nH]c(=O)[nH]c(=O)c2[nH]1
inactive: [6] 95 % of control | [11] 94 % of control | [12] 108 % of control

COc1ccc2cc(O)ccc2c1
inactive: [9] 113 % of control | [10] 100 % of control | dose: 400.0 mg/kg/injection, schedule: Q01DX009 (ip), vehicle: saline with Tween-80 90 % of control
